# From patent US9006170B2, “Compositions for elastogenesis and connective tissue treatment” (Human Matrix Sciences, LLC, priority 2004, dated 2015)
# Where two headings read alike, the source gives them in different places.
# How the values were obtained:
# [1] = test system: human dermal fibroblasts; test: Cellular proliferation of human dermal fibroblasts (total DNA content and [3H]-thymidine incorporation); type: cell-based; conditions: person
# Excerpt: Manganese compositions induce cellular proliferation.
# [2] = test system: elastin mRNA; test: Northern blot analysis of elastin mRNA levels in human aortic smooth muscle cells; type: cell-based
# Description: (§1) Smooth muscle cells were isolated in the following manner porcine thoracic aortas and coronary arteries were dissected from young pigs obtained from local slaughterhouse. Passage two of human aortic smooth muscle cells from a normal subject was purchased from Clonetics Inc. (San Diego, Calif.). Arterial tissues were diced and explanted in a-MEM (modified Eagle's medium) supplemented with 10% FBS, 25 mM HEPES, L-glutamine, and […]. Tissue samples were diced and cells isolated by collagenase and elastase digestion as previously described.
# (§2) Porcine thoracic aortas and coronary arteries were dissected from young pigs obtained from local slaughterhouse. Passage two of human aortic smooth muscle cells from a normal subject was purchased from Clonetics Inc. (San Diego, Calif.). Arterial tissues were diced and explanted in a-MEM (modified Eagle's medium) supplemented with 10% FBS, 25 mM HEPES, L-glutamine, and […]. Tissue samples were diced and cells isolated by collagenase and elastase digestion as previously described. Cells were maintained in a-MEM supplemented with 5% FBS and were routinely passaged by trypsinization. All the experiments were performed using SMC at passage 2-5. […] Aortic and coronary artery SMC's were plated at the initial density 50,000 dish, either directly on plastic or on coverslips, and maintained for 1-2 days until confluency. Cultures were then divided into experimental groups and maintained in the presence and absence of experimental reagents for 7 days. Fresh media were added at days 3 and 5.
# [3] = test system: human aortic smooth muscle cells; test: Metabolic labeling of newly synthesized insoluble elastin by human aortic smooth muscle cells; type: cell-based
# Description: as §1
# as §2, with “Cultures were then divided into experimental groups and maintained in the presence and absence of experimental reagents for 7 days. Fresh media were added at days 3 and 5.” left out
# [4] = test system: human dermal fibroblast cultures; test: Immunohistochemical analysis of elastin synthesis in human dermal fibroblast cultures; type: cell-based; conditions: for synthesis of elastin (elastic fibers detected by immunocytochemistry): all concentrations 0.5 μM-2.0 μM, fibroblasts from various aged subjects; for deposition of extracellular matrix components, elastin and collagen type I: human dermal fibroblast cultures
# Excerpt: Refer to FIG. 1, which illustrates both the elastic fibers detected by immunocytochemistry and the morphometric analysis of elastic fibers. MnCl2 and Mn-PCA were introduced into the fibroblasts derived from the various aged subjects over various concentrations.
# [5] = test system: human dermal fibroblast cultures; conditions: immunohistochemistry, versus control
# Description: In some experiments the serum free medium was also used.
# The above prepared fibroblasts and smooth muscle cells were cultured in the presence or absence of (0.5-5 μM) of a manganese salt. Deposition of extracellular matrix components, elastin and collagen type I was assessed in 5-10 days old cultures by immunohistochemistry with a panel of specific antibodies.
# [6] = test system: human skin; conditions: 10 μM MnSO4 or 20 μM FAC, 7 days; for elastic fibers (Movat's Pentachrome, ×400): person
# Excerpt: Materials and Methods. Organ cultures of explants were derived from surgical biopsies of human skin. […] All organ cultures were fixed in 1% buffered formalin and their transversal histological sections were stained with Movat pentachrome method to visualize major components of extracellular matrix, including elastic fibers.
# [7] = test system: normal human skin fibroblasts; test: Quantitative assay of insoluble elastin ([3H]-valine metabolic labeling) in fibroblast cultures; type: cell-based; conditions: for reversal of the inhibitory effect of 200 μM iron treatment on elastin deposition: antioxidant applied with 200 μM of iron
# [8] = test system: elastin mRNA; test: One-step RT-PCR of elastin and β-actin mRNA
# Description: Total RNA was extracted using the RNeasy Mini Kit, according to manufacturers instructions, and 1 μM of total RNA was added to each one step RT-PCR (Qiagen OneStep RT-PCR Kit) and reactions were set up according to manufacturers instructions in a total volume of 25 μl. The reverse transcription step was performed for elastin and β-actin reactions at 50 ° C. for 30 minutes followed by 15 minutes at 95 ° C.
# 5 μl samples of the elastin and β-actin PCR products from each reaction were ran on a 2% agarose gel and post-stained with ethidium bromide. The amount of elastin mRNA was standardized relative to the amount of β-actin mRNA.
# [9] = test system: normal human skin fibroblasts; conditions: 3 hours
# Description: Assays of Intracellular ROS levels. […] This probe passively diffuses into the cell interior and only upon oxidation it releases a fluorescent product that can be visualized under fluorescent microscope or captured by flow cytophotometry, when it is excited at 480 nm. To measure intracellular ROS production normal human skin fibroblasts were plated on glass coverslips in 35 mm dishes (50,000 cells/dish) and grown to confluency. The cells were then washed with PBS and incubated with or without 10 μM of CM-H2DCFDA for 30 minutes in fresh media. The cells were then washed again in PBS and incubated with new media in the presence or absence of FAC (2-400 μM) for 3 additional hours. The cells were then washed twice with PBS before being mounted to the glass slides and the images were captured under a fluorescent microscope under identical parameters of contrast and brightness.
# In addition, the quantification of this reaction was performed by flow cytometry (λ excitation 480 nm; λ emission 520 nm). Quadruplicate cultures of fibroblasts were preincubated with CM-H2DCFDA and maintained in the presence or absence of FAC as described above. […] They were then collected by centrifugation (4° C., 1000 RPM for 3 minutes), washed in cold PBS and fixed with 4% formaldehyde for 10 minutes in the dark and analyzed by flow cytometry (FACSCalibur, Beckton Dickinson).
# [10] = test system: normal human skin fibroblasts; conditions: for elastin deposition (immunostaining): 3 days
# [11] = test system: elastin mRNA; conditions: 60 μM DRB
# Description: (§3) Quantitative TaqMan RT-PCR. […] In order to assess the effect of iron on elastin mRNA stability parallel quadruplicate cultures were grown to confluency in 100 mm dishes. […] The reverse transcriptase reaction was performed using 1.5 μg of total RNA, oligo(dT)'s and the SuperScript First-Strand synthesis system (Invitrogen Life Technologies) according to manufacturer's instructions.
# (§4) Elastin mRNA levels was measured by real-time quantitative PCR method performed on the ABI PRISM 7700 Sequence Detection System (Applied Biosystems, Foster City, Calif.). For each treatment two distinct amplifications were carried out in parallel in order to amplify elastin cDNA and GAPDH cDNA. The amplification reactions were performed in 25 μl volumes containing 30 ng of cDNA per treatment in triplicate, 12.5 μl of 2× TaqMan Universal PCR Master Mix (Applied Biosystems), and 1.25 μl of 20× Assays-on-Demand Gene Expression probe for elastin (Applied Biosystems) or TaqMan GAPDH probe (Applied Biosystems). Elastin mRNA levels from each treatment was normalized to the corresponding amount of GAPDH mRNA levels. Water controls and samples without PCR mixtures were set up to eliminate the possibility of significant DNA contamination. Final results were expressed as the mean of two independent experiments.
# Since steady-state mRNA levels reflect the balance between transcription efficiency and message decay, we further studied whether fluctuations in iron concentration may affect elastin mRNA stability. […] At indicated time points total RNA was extracted and subjected to quantitative TaqMan RT-PCR analysis. The results are expressed as the mean±SD from two separate experiments conducted in quadruplicate cultures.
# [12] = test system: elastin mRNA; conditions: 24 hours
# Description: (§5) The intensity of elastin message signal detected by Northern blotting was assessed by densitometry after normalization to GAPDH message levels and the corresponding values are shown in the bar graph in arbitrary units. Elastin mRNA levels assessed by TaqMan real time PCR analysis were normalized to the corresponding levels of GAPDH mRNA and expressed as a percentage of untreated control values.
# [13] = test system: normal human skin fibroblasts
# Description: Normal human skin fibroblasts were grown to confluency in 35 mm culture dishes (100,000 cells/dish) in quadruplicates. Then, 2 μCi of [^3H]-valine/ml of fresh media was added to each dish, along with or without 2, 20, 100, 200 μM of FAC. […] The cells were extensively washed with PBS and the soluble proteins present in the intracellular compartments were extracted overnight at 4° C. with 0.1 M acetic acid in the presence of proteinase inhibitors. After centrifugation the supernatants were pre-cleaned by 30 minutes incubation with 50 p. […] The protein A-containing beads were sedimented by centrifugation; washed with immunoprecipitation buffer, mixed with scintillation fluid and counted. […] The resulting pellets containing the insoluble elastin were then solubilized by boiling in 200 μl of 5.7 N HCl for 1 hour, and the aliquots were mixed in scintillation fluid and counted. […] Final results reflecting amounts of metabolically labeled insoluble elastin in individual cultures were normalized per their DNA content and expressed as CPM/1 DNA. […] The conditioned media was then removed and the cell layers were washed and incorporation of [^3H]-valine into the insoluble elastin was assessed as described above.
# [14] = test system: serine proteinases; conditions: 2-200 μM iron
# [15] = test system: normal human skin fibroblasts; remark: listed apart in the source
# Description: Since the net production of elastic fibers depend on the coordinated expression of multiple factors, the expression of three major factors facilitating elasogenesis by immunoflourecent microscopy after exposure of normal human skin fibroblasts to low (20 μM) and high (200 μM) iron concentrations was tested.
# [16] = test system: elastin mRNA
# Description: as §3, §4, §5
# [17] = test system: normal human skin fibroblasts; remark: listed apart in the source
# Description: Assessment of Cell Proliferation. Normal human skin fibroblasts were suspended in DMEM containing 10% FBS and plated in 35 mm culture dishes (100,000 cells/dish) in quadruplicates. […] These cultures were then washed in PBS and treated with cold 5% trichloroacetic acid twice for 10 minutes at 4° C. For 30 minutes, 0.5 ml of 0.3 N NaOH was added to all dishes, and 200 μl aliquots of each culture were mixed with scintillation fluid and counted.
# [18] = equimolar (20 μM) ferric iron and DFO
molecule,measurement,setting,value
manganese salt of L-Pyrrolidone Carboxylic Acid [Mn-PCA],dermal fibroblast proliferation,[1],stimulate dermal fibroblast proliferation
same,more elastin transcription over the control,[2],~66%
same,transcription of the elastin gene (elastin mRNA levels),[2],can induce transcription of the elastin gene
same,increase in elastin synthesis over the control,[3],two-fold
same,synthesis of elastin (elastic fibers detected by immunocytochemistry),[4],induce synthesis of elastin
same,"deposition of extracellular matrix components, elastin and collagen type I",[4],induced
same,deposition of collagen type I,[5],increased deposition in collagen type I
"O=S(=O)([O-])[O-].[Mn+2] [MnSO4, manganese sulfate]",transcription of the elastin gene (elastin mRNA levels),[2],can induce transcription of the elastin gene
same,agitation and migration of stratum basale-derived cells with fibroblastic phenotype,[6],higher than control level of agitation and migration of stratum basale-derived cells with fibroblastic phenotype
same,infiltrating activated (differentiating) cells (×600),[6],seem to contain more such activated cells
same,"elastic fibers (Movat's Pentachrome, ×400)",[6],stimulated production of long elastic fibers primarily running perpendicular to the epidermis
catalase,reversal of the inhibitory effect of 200 μM iron treatment on elastin deposition,[7],not observed
CC1(C)CC(O)CC(C)(C)N1[O] [Tempol],reversal of the inhibitory effect of 200 μM iron treatment on elastin deposition,[7],not observed
"CC(=O)N(O)CCCCCNC(=O)CCC(=O)N(O)CCCCCNC(=O)CCC(=O)N(O)CCCCCN [DFO, desferrioxamine]",iron induced increase in elastin deposition,[7]; [18],abolished the iron induced increase
same,elastin mRNA levels,"[8]; 20 μM of DFO, compared to untreated control",significantly reduced
same,iron induced increase in elastin mRNA levels,[8]; [18],abolished the iron induced increase
manganese chloride [MnCl2],transcription of the elastin gene (elastin mRNA levels),[2],can induce transcription of the elastin gene
same,synthesis of elastin (elastic fibers detected by immunocytochemistry),[4],induce synthesis of elastin
same,"deposition of extracellular matrix components, elastin and collagen type I",[4],induced
ferric ammonium citrate [FAC],intracellular ROS production,[9]; 2-40 μM of iron,produced the same amount of ROS as untreated controls
same,intracellular ROS production,[9]; 100-400 μM iron,dose dependant increase in ROS production
same,elastin deposition (immunostaining),[10]; 100 μM iron,did not induce better elastin deposition then treatment with 20
same,elastin deposition (immunostaining),[10]; 200 μM of iron,dragged elastin deposition back to the control levels
same,production of elastic fibers (immunostaining),"[10]; 2 and 20 μM of iron, 3-day-long treatment",significantly increased the production of elastic fibers over control levels
same,elastin mRNA half-life,[11]; 20 μM iron,~16 h
same,decrease in elastin mRNA level,[11]; 200 μM iron,about 2.5 fold
same,elastin mRNA half-life,[11]; 200 μM iron,~6 h
same,"elastin mRNA levels (Northern blot, corrected for GAPDH)",[12]; 200 μM of iron,returned back to control values
same,"elastin mRNA levels (Northern blot, corrected for GAPDH)",[12]; 2 and 20 μM iron,dose-dependent increase in elastin mRNA levels
same,[3H]-valine-labeled tropoelastin synthesis,"[13]; 2 and 20 μM iron, 72 hours",syntesize more [^3H]-valine-labeled tropoelastin than untreated counterparts
same,tropoelastin production,[13]; 100 and 200 μM iron versus 20 μM,lower tropoelastin production as compared to those treated with 20 μM
same,agitation and migration of stratum basale-derived cells with fibroblastic phenotype,[6],higher than control level of agitation and migration of stratum basale-derived cells with fibroblastic phenotype
same,infiltrating activated (differentiating) cells (×600),[6],seem to contain more such activated cells
same,"elastic fibers (Movat's Pentachrome, ×400)",[6],induced deposition of shorter elastic fibers primarily running parallel to the epidermis
same,elastolytic activity of serine proteinases,[14],did not stimulate elastolytic activity of serine proteinases
same,immunodetectable levels of elastin binding protein (EBP),[15],not changed
same,immunodetectable levels of fibrillin-1,[15],not changed
same,immunodetectable levels of lysyl oxidase,[15],not changed
same,increase in elastin mRNA levels,"[16]; 20 μM of iron, 24 hours",~3 fold
same,tropoelastin mRNA (real-time RT-PCR),"[16]; 200 μM of iron, 24 hours",significant reduction in tropoelastin mRNA
same,increase in the elastin mRNA level,[16]; low iron concentrations (2-20 μM),2-3 fold
same,[3H]-thymidine incorporation (proliferation rate),"[17]; high doses of iron (100 μM and 200 μM), 72 hours, listed as iron",proliferate with a significantly higher rate than untreated cells
same,cellular proliferation rate,[17]; low iron concentrations (lower than 25 μM),did not cause any increase in cellular proliferation rate
